Experimental data as given in patent US4681877A, “Pivaloyloxymethyl 7-β-[2-(2-amino-4-thiazolyl)-2-methoxyiminoacetamido]-3-(2-amino-1, 3-thiadiazolyl-5-thiomethyl)-3-cepheme-4-carboxylate and pharmaceutical composition containing the same” (Kureha Kagaku Kogyo Kabushiki Kaisha, priority 1982, dated 1987).
Where two headings read alike, the source gives them in different places.

What was measured:
E. coli W 3636 = experiment: Minimum growth-inhibition concentration (MIC), E. coli W 3636; type: cell-based, Escherichia coli; settings: Mueller-Hinton agar, 18 to 24 hours at 37° C.
Method: (§1) The minimum inhibiting concentration(MIC) of the compound represented by the formula(I) and the compound represented by the formula(V) was measured according to the standard method of Japan Society of Chemotherapy against each of the following bacterial species:
(§2) Anti-bacterial activity of the compounds respectively produced in Examples 1, 2 and 3 was determined according to the standard method of Japanese Society of Chemotherapy as follows.
(§3) Each of the following bacterial strains was inoculated in Mueller-Hinton's culture medium and cultured for 18 to 48 hours at 37° C. to obtain a standard bacterial liquid containing 10^6 cells/ml.
(§4) Separately, agar plates were prepared by adding each of the solutions of each of the compounds respectively produced in Examples, 1, 2 and 3 at predetermined concentrations in amount of one ninth by weight to Mueller-Hinton's culture medium.

[1] = system: Pseudomonas aeruginosa IAM 1514; experiment: Minimum growth-inhibition concentration (MIC), Pseudomonas aeruginosa IAM 1514; type: cell-based; settings: Mueller-Hinton agar, 18 to 24 hours at 37° C.
Method: as §1, §2, §3, §4

[2] = Stability to rat liver homogenate (S-9 mix): rate of maintaining the antibacterial activity; type: in vitro ADME; settings: rat, s9
Method: For verifying the stability of the compound represented by the formula (I), 7-beta-[2-(2-amino-4-thiazolyl)-2-methoxyiminoacetamindo]-3-(-2-amino-1,3,4-thiadiazoyl-5-thiomethyl)-3-cepheme -4-carboxyulic acid in living body of the host, the following model experiment was carried out.
(§5) As a metabolism-activating enzyme, a rat liver homogenate (S-9, manufactured by Oriental Yeast Co.) was used in the following composition(referred to as S-9 mix, hereinafter):
(§6) After mixing 0.1 ml of a solution of the compound to be tested with 0.9 ml of S-9 mix or 0.9 ml of 0.1 M phosphoric acid buffer solution, the mixture was subjected to shaking culture for 20 min at 37° C. to prepare a test reaction solution for use in the following experiment.
(§7) Staphylococcus aureus IAM 1011 was inoculated to Mueller-Hinton'culture medium and the inoculum was cultured for 18 hours at 37° C. and after adjusting the number of the bacterial cells to 10^8 /ml of the culture medium, 50 times by weight of the Mueller-Hinton agar culture medium were added to the cultured medium to prepare flat culture plates. After placing a penicillin-cup of 8 mm in diameter on each of the thus prepared flat culture plates, 0.1 ml of the above-mentioned test reaction solution was introduced into the penicillin cup, and after leaving the system for 2 hours at 4° C., the system was incubated for 18 hours at 37° C., and the diameter of the growth-inhibition circle around the cup on the culture plate was determined.
By applying each of the thus determined diameters of the respective growth-inhibition circles on a diagram preliminarily prepared to indicate the relationship between the diameter of the growth-inhibition circle and the concentration of the compound in the culture medium before carrying out the culture, the concentration of the compound in the culture medium in the presence of S-9 mix was obtained(referred to as C2). […]

E. coli IFO 12734 = experiment: Minimum growth-inhibition concentration (MIC), E. coli IFO 12734; type: cell-based, Escherichia coli; settings: Mueller-Hinton agar, 18 to 24 hours at 37° C.
Method: as §1, §2, §3, §4

[3] = system: Serratia marcescens IAM 1223; experiment: Minimum growth-inhibition concentration (MIC), Serratia marcescens IAM 1223; type: cell-based; settings: Mueller-Hinton agar, 18 to 24 hours at 37° C.
Method: as §1, §2, §3, §4

[4] = system: Proteus vulgaris IAM 1025; experiment: Minimum growth-inhibition concentration (MIC), Proteus vulgaris IAM 1025; type: cell-based; settings: Mueller-Hinton agar, 18 to 24 hours at 37° C.
Method: as §1, §2, §3, §4

[5] = Stability in blood of living body: serum concentration after injection; type: in vivo, male Wistar rats; settings: rat, iv, caudal vein, Wistar rats, read-out: Concentration in the serum specimen
Method: A solution of sodium salt (the product in Example 2) of the compound represented by the formula(I) in an aqueous physiological solution was injected into each of 5 healthy male Wistar rats (body weight of about 180 g) after 6 to 7 weeks of birth from the caudal vein by one shot method. The same procedure was carried out by using a solution of the sodium salt in a 1/15 M phosphoric acid buffer of pH of 7.0. After 30 min, 2 hours and 4 hours of the injection, the blood of the rate was collected from the cut carotid artery of the rat, and the collected blood was subjected to centrifugation for 15 min at 3000 rpm to obtain the three kinds of serum specimens (collected after 30 min, 2 hours and 4 hours after the injection).
Separately, flat culture plates were made by adding 0.05 % by weight of Escherichia coli IFO 12734 into Heart-infusion agar culture medium, and a penicillin cup of 8 mm in diameter was placed on the flat culture medium, and each of the serum specimen, each of the blood specimen, 1/15 M phosphoric acid buffer solution or a 50% acetone-phosphoric acid buffer solution was introduced into the cup. The thus prepared inoculant was left for 30 min to 1 hour at room temperature and incubated for a night at 37° C.
Then, the diameter of the growth-inhibition circle around the penicillin cup on each flat culture plate was determined, and according to the preliminarily prepared graph showing the relationship between the diameter of the growth-inhibition circle and the concentration of the sodium salt in the serum specimen, the blood specimen, 1/15 M phosphoric acid buffer solution and 50% acetone-phosphoric acid buffer solution, the concentration of the sodium salt in the serum specimen was obtained as: […]

[6] = system: Staphylococcus aureus IAM 1011; experiment: Minimum growth-inhibition concentration (MIC), Staphylococcus aureus IAM 1011; type: cell-based; settings: Mueller-Hinton agar, 18 to 24 hours at 37° C.
Method: as §1, §2, §3, §4

Escherichia coli [7] = experiment: Number of bacterial cells in feces, E. coli; type: in vivo, Escherichia coli; female ICR mice; settings: after 2 days oral 100 mg/kg; before: 6.4
Method: (§8) The above-mentioned pivaloyloxymethyl ester represented by the formula(V) was orally administered for two continued days at a daily dosage of 100 mg/kg body weight to each of five female ICR mice of a group after 6 weeks of birth. Each of the two fecal specimens respectively collected before and after one day of the administration was diluted with 100 times by weight of an anaerobic diluent(a phosphoric buffer solution) and was ground in a mortar, and 0.1 ml of the ground material was smeared on each of the following culture media for the following bacteria and the thus inoculated culture media were incubated under the following conditions. Thereafter, the number of the following bacteria was determined on each culture medium.

test bacterial species = experiment: Anti-bacterial activity (MIC) in general, all test species; type: cell-based; settings: against the test bacterial species
Method: as §1
Escherichia coli IFO 12734
Staphylococcus aureus IAM 1011
Proteus vulgaris IAM 1025
Pseudomonas aeruginosa IAM 1514 and
Serratia marcescens IAM 1223

Pseudomonas aeruginosa = system: Pseudomonas aeruginosa; design: species or system Pseudomonas aeruginosa; female ICR mice; settings: mouse, in vivo, po, 100 mg/kg
Method: as §8

[8] = system: Staphylococcus aureus IAM 1011; experiment: Stability of the compound of formula (V): growth-inhibiting circle with/without S-9 mix; type: cell-based; settings: formula (I) = 100
Method: as §5, §6, §7
The same test as above was carried on the compound represented by the formula(V). […]

Escherichia coli [9] = experiment: Activity against Escherichia coli before and after metabolism by rat liver homogenate; type: cell-based
Method: The same test as above was carried on the compound represented by the formula(V). The results obtained were compared to the results of the test (1) on the compound represented by the formula(I) according to the following criterion.
Taking the diameter of the growth-inhibiting circle due to the compound represented by the formula(I) at the same concentration as 100, and the ratio of the diameter of the growth-inhibiting circle due to the compound represented by the fomula(V) to the diameter of the growth-inhibiting circle due to the compound represented by the formula(I) is represented by the percentages as follows, and the respective signs are attributed to the respective percentage.

Lactobacillus sp. = system: Lactobacillus sp.; design: species or system Lactobacillus sp.; female ICR mice; settings: mouse, in vivo, po, 100 mg/kg
Method: as §8

[10] = Acute mammalian toxicity (LD50, 7-day mortality); type: in vivo; settings: mouse, in vivo
Method: (§9) Acute mammalian toxicity of the compound represented by the formula(I) and the compound represented by the formula(V) was investigated by orally or intraperitoneally administering a series of aqueous physiological saline solution containing each of the above-mentioned compounds to groups of ICR-JCL mice, and observing the toxic symptoms appearing on the mice including the mortality for 7 days. Then, from the cumulative mortality, LD50 values were calculated by Litchfield-Wilcoxon's graphical method.

ICR-JCL mice = experiment: Acute mammalian toxicity (LD50, 7-day mortality); type: in vivo; settings: autopsy after 7 days, dead and live mice
Method: as §9

Escherichia coli IFO = experiment: Effects on infectious disease (mice infected with Escherichia coli IFO); type: in vivo; settings: orally 100 mg/kg just after and 4 hours after inoculation; 7 days
Method: After inoculating a group consisting of 20 mice with Escherichia coli IFO intraperitoneously to be infected, the compound represented by the formula(V) was orally administered to the mice just after and after 4 hours of inoculation at a dose rate of 100 mg/kg body weight, and after 7 days of the administration, the effectiveness of the compound was judged by observing the death rate of each group of mice by the infection.
In the same manner, after inoculating another group consisting of 20 mice with Escherichia coli IFO intraperitoneously to be infected, the compound represented by the formula(I) was orally administered thereto just after and after 4 hours of inoculation at the dose rate of 100 mg/kg body weight, and after 7 days of the administration, the effectiveness of the compound was judged by observing the rate of survival of the mice.

Lactobacillus bifidus = system: Lactobacillus bifidus; design: species or system Lactobacillus bifidus; female ICR mice; settings: mouse, in vivo, po, 100 mg/kg
Method: as §8

Streptococcus sp. = system: Streptococcus sp.; design: species or system Streptococcus sp.; female ICR mice; settings: mouse, in vivo, po, 100 mg/kg
Method: as §8

Bacterioides sp. = system: Bacterioides sp.; design: species or system Bacterioides sp.; female ICR mice; settings: mouse, in vivo, po, 100 mg/kg
Method: as §8

CO/N=C(\C(=O)N[C@@H]1C(=O)N2C(C(=O)O)=C(COC(C)=O)CS[C@H]12)c1csc(N)n1 [CEFOTAX ®, reference compound]
Minimum growth-inhibition concentration (MIC) on E. coli W 3636 (E. coli W 3636): 0.1
Minimum growth-inhibition concentration (MIC) on Pseudomonas aeruginosa IAM 1514 [1]: 50
remaining at 20 min [2]: 17%
Minimum growth-inhibition concentration (MIC) on E. coli IFO 12734 (E. coli IFO 12734): < 0.05
Minimum growth-inhibition concentration (MIC) on Serratia marcescens IAM 1223 [3]: 0.2
Minimum growth-inhibition concentration (MIC) on Proteus vulgaris IAM 1025 [4]: < 0.05
concentration at 0.5 h ([5]; 30 min after injection): 7 µg/mL
concentration at 2 h ([5]; 2 hours after injection): 2.5 µg/mL
concentration at 4 h ([5]; 4 hours after injection): 0.4 µg/mL
Minimum growth-inhibition concentration (MIC) on Staphylococcus aureus IAM 1011 [6]: 1.56

CON=C(C(=O)N[C@@H]1C(=O)N2C(C(=O)OCOC(=O)C(C)(C)C)=C(CSc3nnc(N)s3)CS[C@H]12)c1csc(N)n1 [Example 3, pivaloyloxymethyl 7-beta-[2-(2-amino-4-thiazolyl) -2-methoxyiminoacetamido]-3-(2-amino-1,3,4,-thiadiazolyl-5-thiomethyl)-3-cepheme-4-carboxylate]
Minimum growth-inhibition concentration (MIC) on E. coli W 3636 (E. coli W 3636): 50
log10 value of the number of bacterial cells/g of feces, E. coli (Escherichia coli [7]): 6.5 log10 of bacterial cells/g of
Anti-bacterial activity (MIC), in words (test bacterial species): not so small to verify the anti-bacterial activity
log10 value of the number of bacterial cells/g of feces, Pse. aeruginosa (Pseudomonas aeruginosa): < 3.0 log10 of bacterial cells/g of
Ratio of diameter of growth-inhibiting circle to that of formula (I), sign ([8]; added with S-9 mix): +++ (67 to 100)
Ratio of diameter of growth-inhibiting circle to that of formula (I), sign ([8]; without addition of S-9 mix): ± (0 to 1)
Minimum growth-inhibition concentration (MIC) on Pseudomonas aeruginosa IAM 1514 [1]: ≥ 100
Activity against Escherichia coli, in words (Escherichia coli [9]; after metabolized by the rat liver homogenate): active
Activity to Escherichia coli, in words (Escherichia coli [9]; compound itself, without S-9 mix): inactive
log10 value of the number of bacterial cells/g of feces, Lactobacillus sp. (Lactobacillus sp.): 8.9 log10 of bacterial cells/g of
LD50 at 168 h ([10]; ip, read-out: LD50 (intraperitoneous)): > 10000 mg/kg
LD50 at 168 h ([10]; po, read-out: LD50 (oral)): > 10000 mg/kg
Autopsy findings (ICR-JCL mice): No noticeable information
Minimum growth-inhibition concentration (MIC) on E. coli IFO 12734 (E. coli IFO 12734): 12.5
Minimum growth-inhibition concentration (MIC) on Serratia marcescens IAM 1223 [3]: ≥ 100
Minimum growth-inhibition concentration (MIC) on Proteus vulgaris IAM 1025 [4]: 12.5
Rate of survival (Escherichia coli IFO): over 60%
log10 value of the number of bacterial cells/g of feces, Lact. bifidus (Lactobacillus bifidus): 8.4 log10 of bacterial cells/g of
log10 value of the number of bacterial cells/g of feces, Streptococcus sp. (Streptococcus sp.): 7.0 log10 of bacterial cells/g of
Minimum growth-inhibition concentration (MIC) on Staphylococcus aureus IAM 1011 [6]: ≥ 100
log10 value of the number of bacterial cells/g of feces, Bacterioides sp. (Bacterioides sp.): 8.2 log10 of bacterial cells/g of
